System: MV-4-11 cells
Assay: Gene expression microarray analysis (Affymetrix PrimeView) and GSEA
Format: cell-based, human
Parameters: RFU PODN (11730768_x_at) / Fold change /veh PODN (11730768_x_at) / RFU LINC00158 (11744669_a_at) / Fold change /veh LINC00158 (11744669_a_at) / RFU DUSP10 (11751237_a_at) / Fold change /veh DUSP10 (11751237_a_at) / RFU ID3 (11757404_x_at) / Fold change /veh ID3 (11757404_x_at) / RFU PLEKHG5 (11737974_s_at) / Fold change /veh PLEKHG5 (11737974_s_at) / RFU LRRC4B (11730491_at) / Fold change /veh LRRC4B (11730491_at) / RFU GIMAP4 (11747438_a_at) / Fold change /veh GIMAP4 (11747438_a_at) / RFU KRT8 (11758183_x_at) / Fold change /veh KRT8 (11758183_x_at) / RFU CNN1 (11734310_a_at) / Fold change /veh CNN1 (11734310_a_at) / RFU VPS37D (11726825_at) / Fold change /veh VPS37D (11726825_at) / RFU C10orf10 (11716522_x_at) / Fold change /veh C10orf10 (11716522_x_at) / RFU KIR2DL2 /// KIR2DL4 /// KIR2DL5A /// KIR2DL5B /// KIR2DS1 /// KIR2DS2 /// KIR2DS3 /// KIR2DS4 /// KIR3DL3 /// KIR3DL3 /// KIR3DS1 (11738374_at) / Fold change /veh KIR2DL2 /// KIR2DL4 /// KIR2DL5A /// KIR2DL5B /// KIR2DS1 /// KIR2DS2 /// KIR2DS3 /// KIR2DS4 /// KIR3DL3 /// KIR3DL3 /// KIR3DS1 (11738374_at) / RFU C1QL1 (11718748_at) / Fold change /veh C1QL1 (11718748_at) / RFU TMPRSS4 (11747572_a_at) / Fold change /veh TMPRSS4 (11747572_a_at) / RFU HAMP (11756126_x_at) / Fold change /veh HAMP (11756126_x_at) / RFU RNFT2 (11725882_a_at) / Fold change /veh RNFT2 (11725882_a_at) / RFU NR4A2 (11747474_a_at) / Fold change /veh NR4A2 (11747474_a_at) / RFU ABCC12 (11746883_a_at) / Fold change /veh ABCC12 (11746883_a_at) / RFU TMEM136 (11760407_x_at) / Fold change /veh TMEM136 (11760407_x_at) / RFU CLDN22 /// WWC2 (11732394_at) / Fold change /veh CLDN22 /// WWC2 (11732394_at) / RFU HLA-DPB1 (11760878_x_at) / Fold change /veh HLA-DPB1 (11760878_x_at) / RFU SPINT1 (11716480_a_at) / Fold change /veh SPINT1 (11716480_a_at) / RFU GAP43 (11754022_s_at) / Fold change /veh GAP43 (11754022_s_at) / RFU A4GNT (11735810_at) / Fold change /veh A4GNT (11735810_at) / RFU PRB3 (11715151_x_at) / Fold change /veh PRB3 (11715151_x_at) / RFU TUBB4B (11761932_at) / Fold change /veh TUBB4B (11761932_at) / RFU CAPN14 (11732068_a_at) / Fold change /veh CAPN14 (11732068_a_at) / RFU TMCC2 (11721928_a_at) / Fold change /veh TMCC2 (11721928_a_at) / RFU IRGQ (11745062_a_at) / Fold change /veh IRGQ (11745062_a_at) / RFU FAM174B (11720279_a_at) / Fold change /veh FAM174B (11720279_a_at) / RFU TMPRSS4 (11748680_a_at) / Fold change /veh TMPRSS4 (11748680_a_at) / RFU FAM212B (11763350_a_at) / Fold change /veh FAM212B (11763350_a_at) / RFU PLEKHG5 (11743358_a_at) / Fold change /veh PLEKHG5 (11743358_a_at) / RFU ZSCAN30 (11745921_a_at) / Fold change /veh ZSCAN30 (11745921_a_at) / RFU CMKLR1 (11741424_a_at) / Fold change /veh CMKLR1 (11741424_a_at) / RFU LOC101060620 /// MAPK8IP1 (11723275_at) / Fold change /veh LOC101060620 /// MAPK8IP1 (11723275_at) / RFU SPTSSB (11747773_x_at) / Fold change /veh SPTSSB (11747773_x_at) / RFU PRSS12 (11739890_at) / Fold change /veh PRSS12 (11739890_at) / RFU BIN1 (11741810_x_at) / Fold change /veh BIN1 (11741810_x_at) / RFU WNT11 (11732464_a_at) / Fold change /veh WNT11 (11732464_a_at) / RFU C10orf10 (11716521_a_at) / Fold change /veh C10orf10 (11716521_a_at) / RFU C5orf56 (11738089_at) / Fold change /veh C5orf56 (11738089_at) / RFU CYB561 (11721691_x_at) / Fold change /veh CYB561 (11721691_x_at) / RFU ANKRD19P (11752326_a_at) / Fold change /veh ANKRD19P (11752326_a_at) / RFU OR2T12 /// OR2T33 /// OR2T8 (11738714_s_at) / Fold change /veh OR2T12 /// OR2T33 /// OR2T8 (11738714_s_at) / RFU VCAN (11748164_a_at) / Fold change /veh VCAN (11748164_a_at) / RFU JSRP1 (11732532_at) / Fold change /veh JSRP1 (11732532_at) / RFU KRTAP10-11 (11738290_x_at) / Fold change /veh KRTAP10-11 (11738290_x_at) / RFU MYO3A (11730013_a_at) / Fold change /veh MYO3A (11730013_a_at) / RFU EBF3 (11725865_a_at) / Fold change /veh EBF3 (11725865_a_at) / RFU CAMK2N1 (11719241_x_at) / Fold change /veh CAMK2N1 (11719241_x_at) / RFU C5orf56 (11738088_a_at) / Fold change /veh C5orf56 (11738088_a_at) / RFU OLFML3 (11715873_a_at) / Fold change /veh OLFML3 (11715873_a_at) / RFU LOC100653217 /// NTM (11731650_a_at) / Fold change /veh LOC100653217 /// NTM (11731650_a_at) / RFU MAPK11 (11762145_a_at) / Fold change /veh MAPK11 (11762145_a_at) / RFU FIZ1 (11724087_x_at) / Fold change /veh FIZ1 (11724087_x_at) / RFU OASL (11726364_x_at) / Fold change /veh OASL (11726364_x_at) / RFU SOX15 (11748057_x_at) / Fold change /veh SOX15 (11748057_x_at) / RFU CD79A (11719716_a_at) / Fold change /veh CD79A (11719716_a_at) / RFU HIST1H1D (11736915_at) / Fold change /veh HIST1H1D (11736915_at) / RFU CASKIN2 (11723855_a_at) / Fold change /veh CASKIN2 (11723855_a_at) / RFU LOC730098 (11760151_x_at) / Fold change /veh LOC730098 (11760151_x_at) / RFU OR4N2 (11742367_at) / Fold change /veh OR4N2 (11742367_at) / RFU PRRT2 (11749266_a_at) / Fold change /veh PRRT2 (11749266_a_at) / RFU SNX32 (11753110_a_at) / Fold change /veh SNX32 (11753110_a_at) / RFU CDHR5 (11726645_a_at) / Fold change /veh CDHR5 (11726645_a_at) / RFU RCAN1 (11760418_a_at) / Fold change /veh RCAN1 (11760418_a_at) / RFU FAM167A (11723789_a_at) / Fold change /veh FAM167A (11723789_a_at) / RFU FAM26E (11764081_at) / Fold change /veh FAM26E (11764081_at) / RFU ISYNA1 (11749810_s_at) / Fold change /veh ISYNA1 (11749810_s_at) / RFU ACY1 (11761880_at) / Fold change /veh ACY1 (11761880_at) / RFU 11764098_at / Fold change /veh 11764098_at / RFU SAMD14 (11745864_x_at) / Fold change /veh SAMD14 (11745864_x_at) / RFU NPB (11741838_a_at) / Fold change /veh NPB (11741838_a_at) / RFU TMPRSS6 (11731388_a_at) / Fold change /veh TMPRSS6 (11731388_a_at) / RFU KRTAP10-2 (11738614_at) / Fold change /veh KRTAP10-2 (11738614_at) / RFU ARHGAP8 /// PRR5-ARHGAP8 (11727945_x_at) / Fold change /veh ARHGAP8 /// PRR5-ARHGAP8 (11727945_x_at) / RFU KRTAP5-7 /// NADSYN1 (11734609_at) / Fold change /veh KRTAP5-7 /// NADSYN1 (11734609_at) / RFU RASL12 (11751679_a_at) / Fold change /veh RASL12 (11751679_a_at) / RFU CDKN2B (11736163_a_at) / Fold change /veh CDKN2B (11736163_a_at) / RFU PRF1 (11729649_at) / Fold change /veh PRF1 (11729649_at) / RFU, ZNF638 /// ZNF638-IT1 / Fold change vs veh, ZNF638 /// ZNF638-IT1 / RFU, PANK3 / Fold change vs veh, PANK3 / RFU, SH3YL1 / Fold change vs veh, SH3YL1 / RFU, ZEB2 / Fold change vs veh, ZEB2 / RFU, NRIP1 / Fold change vs veh, NRIP1 / RFU, PTTG1IP / Fold change vs veh, PTTG1IP / RFU, CAPN2 / Fold change vs veh, CAPN2 / RFU, MED14 / Fold change vs veh, MED14 / RFU, SNORA58 / Fold change vs veh, SNORA58 / RFU, C1orf63 / Fold change vs veh, C1orf63 / RFU, LRRFIP1 / Fold change vs veh, LRRFIP1 / RFU, NDUFAF7 / Fold change vs veh, NDUFAF7 / RFU, SLC12A2 / Fold change vs veh, SLC12A2 / RFU, IBTK / Fold change vs veh, IBTK / RFU, ESF1 / Fold change vs veh, ESF1 / Fold change vs veh, TMEM50B / RFU, TAOK1 / Fold change vs veh, TAOK1 / RFU, ACBD3 / Fold change vs veh, ACBD3 / RFU, TMA16 / Fold change vs veh, TMA16 / RFU, RWDD3 / Fold change vs veh, RWDD3 / RFU, BCAT1 / Fold change vs veh, BCAT1 / RFU, EDEM3 / Fold change vs veh, EDEM3 / RFU, TMEM33 / Fold change vs veh, TMEM33 / RFU, WDR75 / Fold change vs veh, WDR75 / RFU, AHCTF1 / Fold change vs veh, AHCTF1 / RFU, TFRC / Fold change vs veh, TFRC / RFU, ZDHHC17 / Fold change vs veh, ZDHHC17 / RFU, NOM1 / Fold change vs veh, NOM1 / RFU, ARL8B / Fold change vs veh, ARL8B / RFU, ZBTB11 / Fold change vs veh, ZBTB11 / RFU, TAMM41 / Fold change vs veh, TAMM41 / RFU, KIAA1704 /// LOC100996395 / Fold change vs veh, KIAA1704 /// LOC100996395 / RFU, ING1 / Fold change vs veh, ING1 / RFU, TRMT61B / Fold change vs veh, TRMT61B / RFU, FUBP3 / Fold change vs veh, FUBP3 / RFU, TP53 / Fold change vs veh, TP53 / RFU, TNKS2 / Fold change vs veh, TNKS2 / RFU, ZFP14 / Fold change vs veh, ZFP14 / RFU, ACTR2 / Fold change vs veh, ACTR2 / RFU, PPP3R1 / Fold change vs veh, PPP3R1 / RFU, PIK3R1 / Fold change vs veh, PIK3R1 / RFU, HNRNPA1 / Fold change vs veh, HNRNPA1 / RFU, RNF170 / Fold change vs veh, RNF170 / RFU, ZNF28 / Fold change vs veh, ZNF28 / RFU, RNGTT / Fold change vs veh, RNGTT / RFU, OGT / Fold change vs veh, OGT / RFU, BRD1 / Fold change vs veh, BRD1 / RFU, MARS / Fold change vs veh, MARS / RFU, ZNF655 / Fold change vs veh, ZNF655 / RFU, FAHD1 / Fold change vs veh, FAHD1 / RFU, BDP1 / Fold change vs veh, BDP1 / RFU, LRRCC1 / Fold change vs veh, LRRCC1 / RFU, ARID1A / Fold change vs veh, ARID1A / RFU, ZNF146 / Fold change vs veh, ZNF146 / RFU, ZNF330 / Fold change vs veh, ZNF330 / RFU, GPN3 / Fold change vs veh, GPN3 / RFU, C9orf123 / Fold change vs veh, C9orf123 / RFU, N4BP2L2 / Fold change vs veh, N4BP2L2 / RFU, ARFIP1 / Fold change vs veh, ARFIP1 / RFU, FAM179B / Fold change vs veh, FAM179B / RFU, BCL10 / Fold change vs veh, BCL10 / RFU, UHRF1BP1L / Fold change vs veh, UHRF1BP1L / RFU, BET1 / Fold change vs veh, BET1 / RFU, CNOT2 / Fold change vs veh, CNOT2 / RFU, ZNF268 / Fold change vs veh, ZNF268 / Fold change vs veh, ZNF507 / RFU, DGCR2 / Fold change vs veh, DGCR2 / RFU, WDSUB1 / Fold change vs veh, WDSUB1 / Fold change vs veh, HSP90B1 /// MIR3652 / RFU, ADSS / Fold change vs veh, ADSS / RFU, GK / Fold change vs veh, GK / RFU, ZNF148 / Fold change vs veh, ZNF148 / RFU, TAF9 / Fold change vs veh, TAF9 / RFU, SLC1A5 / Fold change vs veh, SLC1A5 / RFU, SLMO2 / Fold change vs veh, SLMO2 / RFU, ABCC4 / Fold change vs veh, ABCC4 / RFU, LOC101060439 /// RAP1B / Fold change vs veh, LOC101060439 /// RAP1B / RFU, RFX7 / Fold change vs veh, RFX7 / RFU, GTPBP10 / Fold change vs veh, GTPBP10 / RFU, CNEP1R1 / Fold change vs veh, CNEP1R1 / RFU, BIVM-ERCC5 /// ERCC5 / Fold change vs veh, BIVM-ERCC5 /// ERCC5 / RFU, ILF3 / Fold change vs veh, ILF3 / RFU 11762660_at / Fold change /veh 11762660_at / RFU VCAN (11757783_s_at) / Fold change /veh VCAN (11757783_s_at) / RFU DDX43 (11728927_at) / Fold change /veh DDX43 (11728927_at) / RFU KRT8 (11758188_x_at) / Fold change /veh KRT8 (11758188_x_at) / RFU NKD1 (11759106_at) / Fold change /veh NKD1 (11759106_at) / RFU SRD5A1 (11742802_a_at) / Fold change /veh SRD5A1 (11742802_a_at) / RFU TPSAB1 /// TPSB2 (11721975_s_at) / Fold change /veh TPSAB1 /// TPSB2 (11721975_s_at) / RFU GSTM3 (11746129_a_at) / Fold change /veh GSTM3 (11746129_a_at) / RFU IL23R (11737362_x_at) / Fold change /veh IL23R (11737362_x_at) / RFU TMEM51 (11727254_a_at) / Fold change /veh TMEM51 (11727254_a_at) / RFU PIWIL2 (11732686_x_at) / Fold change /veh PIWIL2 (11732686_x_at) / RFU ORM1 (11744905_x_at) / Fold change /veh ORM1 (11744905_x_at) / RFU CCDC152 (11743942_at) / Fold change /veh CCDC152 (11743942_at) / RFU ECM1 (11717891_a_at) / Fold change /veh ECM1 (11717891_a_at) / RFU IL23R (11748794_a_at) / Fold change /veh IL23R (11748794_a_at) / RFU TNFAIP8L3 (11732012_x_at) / Fold change /veh TNFAIP8L3 (11732012_x_at) / RFU MBOAT4 (11741988_at) / Fold change /veh MBOAT4 (11741988_at) / RFU 11764193_at / Fold change /veh 11764193_at / RFU TMEM53 (11763286_at) / Fold change /veh TMEM53 (11763286_at) / RFU MAGEB2 (11727129_at) / Fold change /veh MAGEB2 (11727129_at) / RFU TMEM200A (11744735_a_at) / Fold change /veh TMEM200A (11744735_a_at) / RFU CCDC152 (11751479_a_at) / Fold change /veh CCDC152 (11751479_a_at) / RFU FAM211A (11726209_a_at) / Fold change /veh FAM211A (11726209_a_at) / RFU RGS16 (11746705_a_at) / Fold change /veh RGS16 (11746705_a_at) / RFU VCAN (11755009_s_at) / Fold change /veh VCAN (11755009_s_at) / RFU RHOB (11743442_s_at) / Fold change /veh RHOB (11743442_s_at) / RFU RGS16 (11720943_a_at) / Fold change /veh RGS16 (11720943_a_at) / RFU RGS16 (11720944_at) / Fold change /veh RGS16 (11720944_at) / RFU, VPS4B / Fold change vs veh, VPS4B / RFU, CREB1 / Fold change vs veh, CREB1 / RFU, DNAJC13 / Fold change vs veh, DNAJC13 / RFU, GNAQ / Fold change vs veh, GNAQ / RFU, CDK5R1 / Fold change vs veh, CDK5R1 / RFU, ZRANB3 / Fold change vs veh, ZRANB3 / RFU, CUL4A / Fold change vs veh, CUL4A / RFU, CCNY / Fold change vs veh, CCNY / RFU, UFL1 / Fold change vs veh, UFL1 / RFU, COG3 / Fold change vs veh, COG3 / RFU, DIAPH2 / Fold change vs veh, DIAPH2 / RFU, SKA2 / Fold change vs veh, SKA2 / RFU, AFF3 / Fold change vs veh, AFF3 / RFU, LMF1 / Fold change vs veh, LMF1 / RFU, IPO11 / Fold change vs veh, IPO11 / RFU, DFFB / Fold change vs veh, DFFB / RFU, FOXP1 / Fold change vs veh, FOXP1 / RFU, CARD8 / Fold change vs veh, CARD8 / RFU, STRN3 / Fold change vs veh, STRN3 / RFU, ADK / Fold change vs veh, ADK / RFU, RASSF2 / Fold change vs veh, RASSF2 / RFU, WIPF1 / Fold change vs veh, WIPF1 / RFU, LARP1B / Fold change vs veh, LARP1B / RFU, RASA1 / Fold change vs veh, RASA1 / RFU, RB1 / Fold change vs veh, RB1 / RFU, PPFIA1 / Fold change vs veh, PPFIA1 / RFU, MAT2A / Fold change vs veh, MAT2A / RFU, CCT5 / Fold change vs veh, CCT5 / RFU, WDR92 / Fold change vs veh, WDR92 / RFU, CUX1 / Fold change vs veh, CUX1 / RFU, TTC7A / Fold change vs veh, TTC7A / RFU, TMEM135 / Fold change vs veh, TMEM135 / RFU, DEPTOR / Fold change vs veh, DEPTOR / RFU, CPM / Fold change vs veh, CPM / RFU, DNAJB6 / Fold change vs veh, DNAJB6 / RFU, CACNA2D3 / Fold change vs veh, CACNA2D3 / RFU, DTX4 / Fold change vs veh, DTX4 / RFU, TFCP2 / Fold change vs veh, TFCP2 / RFU, GMCL1 /// GMCL1P1 / Fold change vs veh, GMCL1 /// GMCL1P1 / RFU, AEBP2 / Fold change vs veh, AEBP2 / RFU, SNHG1 /// SNORD22 /// SNORD25 /// SNORD26 /// SNORD27 /// SNORD28 /// SNORD29 /// SNORD31 / Fold change vs veh, SNHG1 /// SNORD22 /// SNORD25 /// SNORD26 /// SNORD27 /// SNORD28 /// SNORD29 /// SNORD31 / Fold change (Aza/veh), C12orf56 (ProbeSet 11735607_a_at) / Fold change (ACY-1035/veh), C12orf56 (ProbeSet 11735607_a_at) / Fold change (Aza/veh), FGFR1OP (ProbeSet 11751329_s_at) / Fold change (ACY-1035/veh), FGFR1OP (ProbeSet 11751329_s_at) / Fold change (Aza/veh), VPS36 (ProbeSet 11739960_a_at) / Fold change (ACY-1035/veh), VPS36 (ProbeSet 11739960_a_at) / RFU SYPL1 (11715823_x_at) / Fold change /veh SYPL1 (11715823_x_at) / RFU IGFBP7 (11715501_s_at) / Fold change /veh IGFBP7 (11715501_s_at) / RFU REEP3 (11722064_at) / Fold change /veh REEP3 (11722064_at) / RFU IGLL1 (11728026_x_at) / Fold change /veh IGLL1 (11728026_x_at): dose or concentration left out as unconfirmed
Conditions: ProbeSet 11720154_at; LIST B

For `Nc1ncn([C@@H]2O[C@H](CO)[C@@H](O)[C@H]2O)c(=O)n1` [azacitidine], the “RFU, NRIP1” value was 462.80 RFU.

From article PMC5218480 (PLoS ONE, 2017)
